# Measured values reported in paper PMC5733301, “Antitubercular Nitroimidazoles Revisited: Synthesis and Activity of the Authentic 3-Nitro Isomer of Pretomanid” (ACS Medicinal Chemistry Letters, 2017).
# pIC50: −log10 of the molar value.
# Assays:
# [1] = set-up: method as in PMID 23733467; conditions: MDR-TB patients; ref [14]; cited from earlier work
# [2] = tested on: Mycobacterium tuberculosis (M. tb); set-up: method as in PMID 19209889; conditions: vs 4; ref [22]; cited from earlier work
# [3] = tested on: M. tb; set-up: method as in PMID 19209889; conditions: ref [22]; cited from earlier work
# [4] = tested on: M. tb; set-up: method as in PMID 19209889; conditions: ref [22]; cited from earlier work; remark: listed apart in the source
# [5] = tested on: VERO cells; experiment: Cytotoxicity against mammalian cells (VERO), 72 h assay; type: cell-based; conditions: Chlorocebus sabaeus, cytotoxicity toward VERO cells
# [6] = tested on: M. tb (strain H37Rv); set-up: method as in PMID 25781074; conditions: hypoxic, growth inhibition ≥90%, ref [15]; cited from earlier work
# [7] = tested on: M. tb (strain H37Rv); set-up: method as in PMID 25781074; conditions: aerobic, growth inhibition ≥90%, ref [15]; cited from earlier work
# [8] = tested on: M. tb (strain H37Rv); experiment: LORA, MIC against M. tb under hypoxic conditions (nonreplicating persistent bacteria); type: cell-based, Mycobacterium tuberculosis; conditions: vs 4 and 3
# [9] = tested on: M. tb (strain H37Rv); experiment: MABA, MIC against M. tb under aerobic conditions; type: cell-based, Mycobacterium tuberculosis
structure (smiles),measurement,setting,value
"Cc1ncc([N+](=O)[O-])n1CCO [MET, metronidazole]",neurotoxicity in long-term use,[1],too neurotoxic for long-term use
O=[N+]([O-])c1cn2c(n1)O[C@H](COCc1ccc(OC(F)(F)F)cc1)C2 [compound 20],less active than 4,[2],5- to 10 fold
same,aerobic MIC99,[3],4 to 8 µM
same,anaerobic MIC90,[4],31 µM
"O=[N+]([O-])c1cn2c(n1)OC[C@@H](OCc1ccc(OC(F)(F)F)cc1)C2 [compound 4, pretomanid]",pIC50,[5],< 3.89
same,MIC LORA,[6],2.6 ± 1.4 µM
same,MIC MABA,[7],0.50 ± 0.30 µM
Cc1cc(CO[C@@H]2COc3nc([N+](=O)[O-])cn3C2)ccc1OC(F)(F)F [compound 9],better than both 4 and linezolid (3) in LORA,[8],about three-fold
same,more active than both 4 and moxifloxacin (6) in MABA,"[9]; MABA, vs 4 and 6",seven- to eight-fold
same,more potent than pretomanid in the aerobic assay,"[9]; MABA, vs pretomanid",eight-fold
O=[N+]([O-])c1cnc2n1C[C@H](OCc1ccc(OC(F)(F)F)cc1)CO2 [compound 8],"loss in activity in comparison to its 2-nitro isomer, 4",[9]; M. tb MIC vs 4,> 256 fold
